Like-named read-outs stand apart in the source and are kept apart here.
Key:
Assay type in all cases: cell-based
AZ521 cells = experiment: cisplatin growth inhibition and caspase-3 activation in BMP4-manipulated cells; settings: for GI50: read-out: absolute GI50
YCC11 cells [1] = experiment: as above; settings: for IC50: read-out: absolute 0150
YCC11 cells [2] = experiment: cisplatin growth inhibition (GI50) in GC cell lines; settings: 48 hrs
Description: (§1) 20 GC cell lines were treated with increasing concentrations of cisplatin, from 0.1 μM to 1 mM. For each line, the cisplatin GI50, referring to the concentration of cisplatin required to cause 50% growth inhibition at 48 hrs.

AGS cells = experiment: as above; settings: 48 hrs
Description: as §1

GC cells = experiment: high-content screening of morpho-cellular parameters after cisplatin treatment
Description: The reason for cell growth inhibition caused by cisplatin was determined using high-content screening (HCS), a cell-based technology allowing biological responses to be measured at the single-cell level, to quantify levels of caspase-3 activation in GC cells after cisplatin treatment. Five distinct morpho-cellular parameters were quantified for alterations induced by cisplatin—caspase3 activation, nuclear size, nuclear condensation, nuclear morphology and nuclear ellipticity.

SMAD1/5/8 = experiment: phosphorylation of BMP-downstream targets after 5-azadC treatment
Description: (§2) Gastric cancer cell lines were treated with 5-aza-2′-deoxycytidine (5-azadC), a chemical inhibitor of DNA methyltransferases to investigate if BMP4 gene expression is regulated by BMP4 promoter methylation.

BMP4 = BMP4 expression after 5-azadC treatment
Description: as §2

N.N.[Cl][Pt][Cl] [cisplatin, cis-diamminedichloroplatinum (II)]
GI50 (AZ521 cells; BMP4-silenced AZ521 cells (individual clones 1 and 2)): 1100 to 3240 nM | caspase-3 activation levels (AZ521 cells; BMP4-silenced AZ521 cells compared to control cells, after cisplatin treatment): significantly higher | GI50 (AZ521 cells; parental AZ521 cells): 15000 nM | IC50 (YCC11 cells [1]; BMP4-overexpressing YCC11 cells (individual clones 1 and 2)): 200 to 500 nM | active Caspase-3 levels (YCC11 cells [1]; BMP4-overexpressing YCC11 cells, after cisplatin): reduction | IC50 (YCC11 cells [1]; parental YCC11 cells): 45 nM | GI50 (YCC11 cells [2]): 1500 nM | GI50 (AGS cells): 126000 nM | caspase-3 activation levels (GC cells; cisplatin-sensitive lines compared to cisplatin-resistant lines): Significantly higher | nuclear ellipticity (GC cells; top four sensitive lines compared to resistant lines): Significant changes

Nc1ncn([C@H]2C[C@H](O)[C@@H](CO)O2)c(=O)n1 [5-azadC, 5-aza-2′-deoxycytidine]
phosphorylated SMAD1/5/8 (SMAD1/5/8; cisplatin resistant lines MKN45 and AZ521): not affected | phosphorylation of SMAD1/5/8 (SMAD1/5/8; cisplatin sensitive lines YCC10 and YCC11): increased | BMP4 transcripts (BMP4; cisplatin sensitive lines YCC10 and YCC11 (BMP4 promoter methylated)): up-regulated | BMP4 expression (BMP4; resistant cell lines MKN45 and AZ521 (BMP4 promoter unmethylated)): did not alter

Source: patent US9458460B2, “Pharmaceutical compositions for treating cancer” (National University of Singapore, priority 2011, dated 2016)
